Assay results reported in US9718799B2, “3-aryl-4H-chromene-4-ones as antineoplastic agents for the treatment of cancer” (The University of Kentucky Research Foundation, priority 2015, dated 2017).

Assays:
[1] = system: PC3 prostate cancer cells; test: Cell proliferation assay in prostate cancer PC3 cells; type: cell-based; conditions: Homo sapiens, PC-3
Experimental: Cell Proliferation Assay:
PC3 prostate cancer cells were cultured in DMEM/F-12 HAM Mixture (Sigma D8437), 10% Fetal Bovine Serum (Atlanta Biological S11150). Before the treatment, 3.5×10^4 cells per well were split into 12-well plates. After 24 h, 10 μM of each compound was added to each well. DMSO was used as a control. This experiment was done in triplicate. Cell viability and number were analyzed using Vi-Cell XR Cell Viability Analyzer (Beckman Coulter).

Row | melting point | SMILES | inhibition at 10 µM [1]
1 | 126 to 128 °C | COCc1c(OC)cc(O)c2c(=O)c(-c3ccc(OC)cc3)coc12 [Isoflavonoid 11b, 5-Hydroxy-7-methoxy-8-(methoxymethyl)-3-(4-methoxyphenyl)-4H-chromen-4-one] | 96.8 ± 0.8%
2 | 164 to 166 °C | COCc1c(O)ccc2c(=O)c(-c3ccccc3OC)coc12 [Isoflavonoid 11c, 7-Hydroxy-8-(methoxymethyl)-3-(2-methoxyphenyl)-4H-chromen-4-one] | 0%
3 | 167 to 169 °C (dec.) | COCc1c(O)ccc2c(=O)c(-c3ccc(OC)cc3)coc12 [Isoflavonoid 11d, 7-Hydroxy-8-(methoxymethyl)-3-(4-methoxyphenyl)-4H-chromen-4-one] | 34.9 ± 3.3%
4 | 201 to 202 °C | COc1ccc(-c2coc3c4c(ccc3c2=O)OC2OCCC2C4)cc1 (centres unmarked) [Isoflavonoid 20a, 3-(4-Methoxyphenyl)-9,10,10a,11-tetrahydro-4H,7aH-furo[2,3-b]pyrano[2,3-f]chromen-4-one] | 62 ± 7%
5 | 203 to 205 °C | O=c1c(-c2ccc3c(c2)OCO3)coc2c3c(ccc12)OC1OCCC1C3 (centres unmarked) [Isoflavonoid 20c, 3-(1,3-Benzodioxol-5-yl)-9,10,10a,11-tetrahydro-4H,7aH-furo[2,3-b]pyrano[2,3-f]chromen-4-one] | 47 ± 4%
6 | 194 to 195 °C | O=c1c(-c2ccc(Cl)cc2)coc2c3c(ccc12)OC1OCCC1C3 (centres unmarked) [Isoflavonoid 20e, 3-(4-Chlorophenyl)-9,10,10a,11-tetrahydro-4H,7aH-furo[2,3-b]pyrano[2,3-f]chromen-4-one] | 63 ± 10%
7 | 182 to 183 °C | COc1ccc(-c2coc3c4c(ccc3c2=O)OC2OCCCC2C4)cc1 (centres unmarked) [Isoflavonoid 21a, 3-(4-Methoxyphenyl)-10,11,11a,12-tetrahydro-4H,7aH,9H-dipyrano[2,3-b:2′,3′-f]chromen-4-one] | 73 ± 6%
8 | 177 to 178 °C | COc1ccc(-c2coc3c4c(ccc3c2=O)OC2OCCCC2C4)cc1OC (centres unmarked) [Isoflavonoid 21b, 3-(3,4-Dimethoxyphenyl)-10,11,11a,12-tetrahydro-4H,7aH,9H-dipyrano[2,3-b:2′,3′-f]chromen-4-one] | 35 ± 10%
9 | 179 to 181 °C | O=c1c(-c2ccc3c(c2)OCO3)coc2c3c(ccc12)OC1OCCCC1C3 (centres unmarked) [Isoflavonoid 21c, 3-(1,3-Benzodioxol-5-yl)-10,11,11a,12-tetrahydro-4H,7aH,9H-dipyrano[2,3-b:2′,3′-f]chromen-4-one] | 68%
10 | 160 to 162 °C | O=c1c(-c2ccc3c(c2)OCCO3)coc2c3c(ccc12)OC1OCCCC1C3 (centres unmarked) [Isoflavonoid 21d, 3-(2,3-Dihydro-1,4-benzodioxin-6-yl)-10,11,11a,12-tetrahydro-4H,7aH,9H-dipyrano[2,3-b:2′,3′-f]chromen-4-one] | 48 ± 3%
11 | 195 to 197 °C | O=c1c(-c2ccc(Cl)cc2)coc2c3c(ccc12)OC1OCCCC1C3 (centres unmarked) [Isoflavonoid 21e, 3-(4-Chlorophenyl)-10,11,11a,12-tetrahydro-4H,7aH,9H-dipyrano[2,3-b:2′,3′-f]chromen-4-one] | 44 ± 4%
12 | 199 to 200 °C | COc1ccc(-c2c(C)oc3c4c(ccc3c2=O)OC2OCCCC2C4)cc1 (centres unmarked) [Isoflavonoid 21g, 3-(4-Methoxyphenyl)-2-methyl-10,11,11a,12-tetrahydro-4H,7aH,9H-dipyrano[2,3-b:2′,3′-f]chromen-4-one] | 62%
13 | 209 to 210 °C | COc1ccc(-c2c(C)oc3c4c(ccc3c2=O)OC2OCCCC2C4)cc1OC (centres unmarked) [Isoflavonoid 21h, 3-(3,4-Dimethoxyphenyl)-2-methyl-10,11,11a,12-tetrahydro-4H,7aH,9H-dipyrano[2,3-b:2′,3′-f]chromen-4-one] | 44 ± 3%
